Results from patent US12612407B2, “Imidazo[2,1-f][1,2,4]triazin-4-amine derivatives as TLR7 agonist” (BEIGENE, LTD., priority 2020, dated 2026).

Biological target: T1, human TLR7 (Homo sapiens, UniProt Q9NYK1)
T1 construct: host or cells: HEK293 (HEK-Blue hTLR7)
T1 sequence (Q9NYK1 27-1049): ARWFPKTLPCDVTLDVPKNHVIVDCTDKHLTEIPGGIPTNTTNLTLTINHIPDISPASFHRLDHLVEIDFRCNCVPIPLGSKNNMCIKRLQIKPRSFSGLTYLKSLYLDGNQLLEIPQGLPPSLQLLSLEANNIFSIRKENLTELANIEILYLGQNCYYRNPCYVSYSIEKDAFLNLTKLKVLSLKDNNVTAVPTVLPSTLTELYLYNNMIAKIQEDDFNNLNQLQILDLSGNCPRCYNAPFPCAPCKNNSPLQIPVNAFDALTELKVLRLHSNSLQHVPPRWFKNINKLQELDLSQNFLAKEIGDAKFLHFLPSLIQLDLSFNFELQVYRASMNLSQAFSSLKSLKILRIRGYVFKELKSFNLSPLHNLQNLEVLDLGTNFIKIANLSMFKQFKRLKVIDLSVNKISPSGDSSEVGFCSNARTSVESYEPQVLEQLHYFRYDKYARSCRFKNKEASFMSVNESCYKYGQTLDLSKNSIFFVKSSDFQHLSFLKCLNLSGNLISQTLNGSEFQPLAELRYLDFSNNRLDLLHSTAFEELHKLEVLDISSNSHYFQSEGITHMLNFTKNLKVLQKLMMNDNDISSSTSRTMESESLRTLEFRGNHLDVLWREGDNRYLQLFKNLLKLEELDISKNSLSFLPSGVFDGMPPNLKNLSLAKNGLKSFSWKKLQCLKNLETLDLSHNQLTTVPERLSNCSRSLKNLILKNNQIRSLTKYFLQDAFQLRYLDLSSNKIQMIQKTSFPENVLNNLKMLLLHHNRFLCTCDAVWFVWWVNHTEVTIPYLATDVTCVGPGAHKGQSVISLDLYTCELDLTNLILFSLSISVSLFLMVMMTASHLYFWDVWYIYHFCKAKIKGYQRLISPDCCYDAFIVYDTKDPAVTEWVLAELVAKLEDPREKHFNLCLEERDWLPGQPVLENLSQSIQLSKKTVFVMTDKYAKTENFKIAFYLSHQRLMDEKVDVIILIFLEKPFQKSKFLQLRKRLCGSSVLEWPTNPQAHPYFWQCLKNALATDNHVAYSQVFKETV
Assay: HEK293-Blue hTLR7 Reporter Assay (QUANTI-BLUE, SEAP readout)
Assay type: cell-based
Conditions: HEK-Blue-hTLR7 cells, 24 hrs treatment, Table 1, B1-B232
How it was run: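 HEK-Blue-hTLR7 cells expressing NF-κB/AP-1-driven SEAP, 4×10^4 cells/well, treated 24 h at 37° C with increasing compound concentrations. Supernatant SEAP measured with Quanti-blue substrate (10-30 min, 37° C) at 620-655 nm; EC50 from sigmoidal dose-response fit.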

| SMILES | EC50 [nM] |
| --- | --- |
| CCC(CC)Nc1nc(N)c2ncc(Cc3cnc(N4CCN(C(=O)CNC)CC4)c(C)c3)n2n1 [Compound B175, 1-(4-(5-((4-amino-2-(pentan-3-ylamino)imidazo[2,1-f][1,2,4]triazin-7-yl)methyl)-3-methylpyridin-2-yl)piperazin-1-yl)-2-(methylamino)ethan-1-one] | 3.3 |
| CCCCOc1nc(N)c2ncc(Cc3cnc(N4CCN(CCc5ccccc5)CC4)c(C)c3)n2n1 [Compound B116, 2-butoxy-7-((5-methyl-6-(4-phenethylpiperazin-1-yl)pyridin-3-yl)methyl)imidazo[2,1-f][1,2,4]triazin-4-amine] | 1190 |
| CCC[C@@H](C)Oc1nc(N)c2ncc(Cc3cnc(N4CCNCC4)c(C)c3)n2n1 [Compound B117, (R)-7-((5-methyl-6-(piperazin-1-yl)pyridin-3-yl)methyl)-2-(pentan-2-yloxy)imidazo[2,1-f][1,2,4]triazin-4-amine] | 62 |
| CCCC(C)Nc1nc(N)c2ncc(Cc3cnc(N4CCN(C(=O)CNC)CC4)c(C)c3)n2n1 (centres unmarked) [Compound B149, 1-(4-(5-((4-amino-2-(pentan-2-ylamino)imidazo[2,1-f][1,2,4]triazin-7-yl)methyl)-3-methylpyridin-2-yl)piperazin-1-yl)-2-(methylamino)ethan-1-one] | 6.3 |
| CCCC(CC)Oc1nc(N)c2ncc(Cc3cnc(N4CCC(N(C)C)CC4)c(C)c3)n2n1 (centres unmarked) [Compound B163, 7-((6-(4-(dimethylamino)piperidin-1-yl)-5-methylpyridin-3-yl)methyl)-2-(hexan-3-yloxy)imidazo[2,1-f][1,2,4]triazin-4-amine] | 2.5 |
| CCC[C@H](CC)Oc1nc(N)c2ncc(Cc3cnc(N4CCNCC4)c(C)c3)n2n1 (single isomer, unassigned) [Compound B224] | 5.1 |
| CCCCOc1nc(N)c2ncc(Cc3cnc(N4CCC5(CCNCC5)C4)c(C)c3)n2n1 [Compound B101, 2-butoxy-7-((5-methyl-6-(2,8-diazaspiro[4.5]decan-2-yl)pyridin-3-yl)methyl)imidazo[2,1-f][1,2,4]triazin-4-amine] | 425 |
| CCCCOc1nc(N)c2ncc(Cc3ccc(N4CCNCC4)c(C)c3)n2n1 [Compound B36, 2-butoxy-7-(3-methyl-4-(piperazin-1-yl)benzyl)imidazo[2,1-f][1,2,4]triazin-4-amine] | 182 |
| CCCC(CC)Oc1nc(N)c2ncc(Cc3cnc(N4CCN(C(=O)CN(C)C)CC4)c(C)c3)n2n1 (centres unmarked) [Compound B169, 1-(4-(5-((4-amino-2-(hexan-3-yloxy)imidazo[2,1-f][1,2,4]triazin-7-yl)methyl)-3-methylpyridin-2-yl)piperazin-1-yl)-2-(dimethylamino)ethan-1-one] | 2.9 |
| CCCC(CCC)Nc1nc(N)c2ncc(Cc3cnc(N4CCC(N(C)C)CC4)c(C)c3)n2n1 [Compound B184, 7-((6-(4-(dimethylamino)piperidin-1-yl)-5-methylpyridin-3-yl)methyl)-N2-(heptan-4-yl)imidazo[2,1-f][1,2,4]triazine-2,4-diamine] | 3.6 |
| CC[C@H](C)Oc1nc(N)c2ncc(Cc3cnc(N4CCN(C(=O)CN(C)C)CC4)c(C)c3)n2n1 [Compound B145, (S)-1-(4-(5-((4-amino-2-(sec-butoxy)imidazo[2,1-f] [1,2,4]triazin-7-yl)methyl)-3-methylpyridin-2-yl)piperazin-1-yl)-2-(dimethylamino)ethan-1-one] | 8 |
| CCCCOc1nc(N)c2ncc(Cc3cnc(N4CCNC[C@H]4C)c(C)c3)n2n1 [Compound B74, (R)-2-butoxy-7-((5-methyl-6-(2-methylpiperazin-1-yl)pyridin-3-yl)methyl)imidazo[2,1-f][1,2,4]triazin-4-amine] | 73 |
| CCCCOc1nc(N)c2ncc(Cc3cnc(C4CCNCC4)c(OC)c3)n2n1 [Compound B17, 2-butoxy-7-((5-methoxy-6-(piperidin-4-yl)pyridin-3-yl)methyl)imidazo[2,1-f][1,2,4]triazin-4-amine] | 149 |
| CCCCOc1nc(N)c2ncc(Cc3cnc(N4CCC(CN)CC4)c(C)c3)n2n1 [Compound B144, 7-((6-(4-(aminomethyl)piperidin-1-yl)-5-methylpyridin-3-yl)methyl)-2-butoxyimidazo[2,1-f][1,2,4]triazin-4-amine] | > 10000 |
| CCC(CC)Oc1nc(N)c2ncc(Cc3cnc(N4CCNCC4)c(C)c3)n2n1 [Compound B162, 7-((5-methyl-6-(piperazin-1-yl)pyridin-3-yl)methyl)-2-(pentan-3-yloxy)imidazo[2,1-f][1,2,4]triazin-4-amine] | 8 |
| CCC[C@@H](C)Oc1nc(N)c2ncc(Cc3cnc(N4CCN(C(=O)CN(C)C)CC4)c(C)c3)n2n1 [Compound B124, (R)-1-(4-(5-((4-amino-2-(pentan-2-yloxy)imidazo[2,1-f][1,2,4]triazin-7-yl)methyl)-3-methylpyridin-2-yl)piperazin-1-yl)-2-(dimethylamino)ethan-1-one] | 51 |
| CCCC(CC)Nc1nc(N)c2ncc(Cc3cnc(N4CCNCC4)c(C)c3)n2n1 (centres unmarked) [Compound B223, N2-(hexan-3-yl)-7-((5-methyl-6-(piperazin-1-yl)pyridin-3-yl)methyl)imidazo[2,1-f][1,2,4]triazine-2,4-diamine] | 6 |
| CCCCOc1nc(N)c2ncc(Cc3cnc(N4CCN(C(=O)CCCCN(C)C)CC4)c(C)c3)n2n1 [Compound B50, 1-(4-(5-((4-amino-2-butoxyimidazo[2,1-f][1,2,4]triazin-7-yl)methyl)-3-methylpyridin-2-yl)piperazin-1-yl)-5-(dimethylamino)pentan-1-one] | 151 |
| C=CC(=O)N1CCN(c2ncc(Cc3cnc4c(N)nc(OCCCC)nn34)cc2C)CC1 [Compound B44, 1-(4-(5-((4-amino-2-butoxyimidazo[2,1-f][1,2,4]triazin-7-yl)methyl)-3-methylpyridin-2-yl)piperazin-1-yl)prop-2-en-1-one] | 6660 |
| CCCCOc1nc(N)c2ncc(Cc3cnc(N4CCN(C(=O)[C@@H](N)C(C)C)CC4)c(C)c3)n2n1 [Compound B70, (S)-2-amino-1-(4-(5-((4-amino-2-butoxyimidazo[2,1-f][1,2,4]triazin-7-yl)methyl)-3-methylpyridin-2-yl)piperazin-1-yl)-3-methylbutan-1-one] | 212 |
| CCC(C)Oc1nc(N)c2ncc(Cc3cnc(N4CCN(C(=O)CNC)CC4)c(C)c3)n2n1 (centres unmarked) [Compound B156, 1-(4-(5-((4-amino-2-(sec-butoxy)imidazo[2,1-f][1,2,4]triazin-7-yl)methyl)-3-methylpyridin-2-yl)piperazin-1-yl)-2-(methylamino)ethan-1-one] | 9.7 |
| CCCCOc1nc(N)c2ncc(Cc3cnc(N4CCN(C(=O)CCCN(C)C)CC4)c(C)c3)n2n1 [Compound B49, 1-(4-(5-((4-amino-2-butoxyimidazo[2,1-f][1,2,4]triazin-7-yl)methyl)-3-methylpyridin-2-yl)piperazin-1-yl)-4-(dimethylamino)butan-1-one] | 124 |
| CCCCOc1nc(N)c2ncc(Cc3cnc(N4CCC(C(=O)N(C)C)CC4)c(C)c3)n2n1 [Compound B95, 1-(5-((4-amino-2-butoxyimidazo[2,1-f][1,2,4]triazin-7-yl)methyl)-3-methylpyridin-2-yl)-N,N-dimethylpiperidine-4-carboxamide] | 4380 |
